Measurements published in patent US11667616B2, “Oral GSNOR inhibitor and pharmaceutical use thereof” (NANJING MEDICAL UNIVERSITY, priority 2020, dated 2023).

Experiments:
[1] = system: human aortic smooth muscle cells (HASMCs); test: Contractile/synthetic marker expression in angiotensin II-treated smooth muscle cells; type: cell-based; conditions: angiotensin II 1 μM, 10 nM, 24 hours
From the text: Then, cellular RNA were extracted to detect contractile/synthetic markers of smooth muscle cells.

HUVECs [2] = test: Endothelial cell tube formation under high glucose; type: cell-based, Human; conditions: high glucose 30 mM, 10 nM, 24 h
From the text: It is known that in the diabetic vascular complications, decreased angiogenesis and increased vascular endothelial permeability are among the risk factors causing local edema, ischemia followed by ulcer and amputation.
(§1) FIG. 3A, FIG. 3B and FIG. 3C show study of the in-vitro activity of the subject compound 1 against diabetic vascular complications.

[3] = Pharmacokinetic study, plasma concentration by LC-MS/MS; type: in vivo, ICR mice; conditions: ICR, mouse; for half-life: read-out: drug half-life period (converted)
From the text: Then, the plasma concentration was detected by LC-MS/MS at hour 0.083, 0.25, 0.5, 1, 2, 4, 8 and 24 respectively (FIG. 5).

GSNOR = molecular target: T1, GSNOR (Homo sapiens, UniProt P11766); test: GSNOR activity in lysate of treated HUVECs (NADH consumption at 340 nm); type: cell-based; conditions: for activities in in-vitro studies: relative to N6022
T1 construct: the cell lysate supernatants were treated with a substrate GSNO and a coenzyme NADH; endogenous in cells; host or cells: HUVEC (human umbilical vein endothelial cells)
T1 sequence (P11766 whole entry): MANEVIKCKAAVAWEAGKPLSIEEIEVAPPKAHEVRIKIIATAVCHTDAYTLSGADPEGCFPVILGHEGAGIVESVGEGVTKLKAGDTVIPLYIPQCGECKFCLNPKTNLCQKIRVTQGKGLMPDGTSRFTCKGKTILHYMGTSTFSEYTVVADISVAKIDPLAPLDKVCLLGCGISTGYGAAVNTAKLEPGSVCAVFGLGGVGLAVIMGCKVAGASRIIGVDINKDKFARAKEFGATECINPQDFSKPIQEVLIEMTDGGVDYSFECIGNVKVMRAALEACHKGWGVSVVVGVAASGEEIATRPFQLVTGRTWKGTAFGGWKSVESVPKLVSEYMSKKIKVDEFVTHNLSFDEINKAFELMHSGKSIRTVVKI
From the text: GSNOR plays a crucial regulatory role in asthma and cystic fibrosis.

[4] = system: C57BL/6J mice with β-aminopropionitrile-induced aortic aneurysm/dissection; test: β-aminopropionitrile-induced aortic aneurysm/dissection model; type: in vivo
[5] = system: diabetic C57BL/6J mice with lateral limb ischemia; test: Streptozotocin diabetes + lateral limb ischemia model; type: in vivo
Experimental: To generate diabetes model, mice at week 8 were intraperitoneally injected with streptozotocin (60 mg/kg/day) for consecutive 5 days, then the modeling was identified as a success if the blood glucose was measured to be greater than 16.6 mmol/L at week 10. […] The gastrocnemius muscles of the ischemic lateral limbs of the mice were isolated for frozen section, and immunofluorescence (platelet-endothelial cell adhesion molecule, CD31) was used to detect the angiogenesis (FIG. 6B); and the semimembranosus muscles were isolated for frozen section, and immunofluorescence (α-smooth muscle actin, α-SMA) was used to detect the arteriogenesis (FIG. 6B).

HUVECs [6] = test: Endothelial cell permeability under high glucose; type: cell-based, Human; conditions: high glucose 30 mM, 10 nM, 24 h
From the text: as §1

HUVECs [7] = test: Endothelial cell sphere sprouting under high glucose; type: cell-based, Human; conditions: high glucose 30 mM, 10 nM, 24 h
From the text: as §1

[8] = gavage 6 mg/kg/day vs N6022 iv 1 mg/kg/day, N6022-1 gavage 5.6 mg/kg/day, N6022-2 gavage 5.3 mg/kg/day
[9] = gavage 6 mg/kg/day, β-aminopropionitrile drinking water 28 days

Row | SMILES | decrease in the expression of the contractile markers (actin α2, calmodulin 1, transgelin) due to angiotensin II [1] | increase in the expression of the synthetic markers (osteopontin, Kruppel-like factor 4, Kruppel-like factor 5) due to angiotensin II [1] | angiogenesis ability of endothelial cells (tube formation) (HUVECs [2]) | half-life [3] [h] | activities in in-vitro studies (GSNOR) | effect on aortic aneurysm/dissection compared with controls [4, 8] | expansion of the aortic diameter [4, 9] | mortality rate of the mice [4, 9] | angiogenesis of the ischemic lateral limbs of the diabetic mice (CD31, α-SMA) ([5]; gavage 6 mg/kg/day after operation) | effect on diabetic limb ischemia compared with controls [5, 8] | blood flow recovery of the lateral limbs (laser speckle imaging) ([5]; gavage 6 mg/kg/day, day 0, 7 and 14) | permeability of the endothelial cells (HUVECs [6]) | sprouting ability of the endothelial cells (HUVECs [7]) | bioavailability ([3]; po) [%] | inhibitory effect on the GSNOR activity (GSNOR; 10 nM, 24 hours, HUVECs, lysate + GSNO + NADH)
1 | Cc1cc(C(N)=O)ccc1-n1c(CCC(=O)O)ccc1-c1ccc(-n2ccnc2)cc1 [N6022, 3-(5-(4-(1H-imidazol-1-yl)phenyl)-1-(4-carbamoyl-2-methylphenyl)-1H-pyrrol-2-yl) propanoic acid, reference compound] | obviously inhibit | obviously inhibit | obviously improve | 0.76 ± 0.15 | – | – | – | – | – | – | – | – | – | – | –
2 | Cc1cc(C(N)=O)ccc1-n1c(CCC(N)=O)ccc1-c1ccc(-n2ccnc2)cc1 [N6022-1] | – | – | – | – | significantly reduced | – | – | – | – | – | – | – | – | – | –
3 | CCOC(=O)CCc1ccc(-c2ccc(-n3ccnc3)cc2)n1-c1ccc(C(N)=O)cc1C [N6022-2] | – | – | – | – | significantly reduced | – | – | – | – | – | – | – | – | – | –
4 | Cc1cc(C(N)=O)ccc1-n1c(CCC(=O)N2CCSC2=O)ccc1-c1ccc(-n2ccnc2)cc1 [subject compound 1, s4-(2-(4-(1H-imidazol-1-yl)phenyl)-5-(3-oxo-3-(2-oxothiazolidin-3-yl)propyl)-1H-pyrrol-1-yl)-3-methylbenzamide] | obviously inhibit | obviously inhibit | obviously improve | 1.62 ± 0.81 | good activity in vitro | equivalent effect to the group intravenously injected with N6022 | inhibited | inhibited | obviously promote | equivalent effect to the group intravenously injected with N6022 | restore blood flow | modify the permeability | improve sprouting ability | 60.1 ± 7.91 | equivalent to N6022
